≈ marks a conversion by molar mass, not a printed value. Where only a bound is given, the exact number is not on record here.

Results on four molecules are retold here after ChEMBL document CHEMBL3865804, “A Gestalt approach to Gram-negative entry” (2016).

Holding throughout (format): functional
The test system of one test is Klebsiella pneumoniae. Briefly: Antibacterial activity against Klebsiella pneumoniae MB4005 by broth microdilution technique. For orientation: Broth dilution looks for growth in wells or tubes with falling amounts of substance.
The test system of another test is Staphylococcus aureus. Briefly: Antibacterial activity against Staphylococcus aureus MB2865 by broth microdilution technique.
For another test, the system named is Haemophilus influenzae. Briefly: Antibacterial activity against Haemophilus influenzae MB5363 by broth microdilution technique.
A further test relates to Enterococcus faecalis. Briefly: Antibacterial activity against Enterococcus faecalis MB5407 by broth microdilution technique.
The subject of a further test is Streptococcus pneumoniae. Kind of test: Antibacterial activity against Streptococcus pneumoniae CL2883 by broth microdilution technique.
The next test concerns Escherichia coli. Kind of test: Antibacterial activity against Escherichia coli MB2884 by broth microdilution technique.

In the case of `CC[C@H]1OC(=O)[C@H](C)[C@@H](O[C@H]2C[C@@](C)(OC)[C@@H](N)[C@H](C)O2)[C@H](C)[C@@H](O[C@@H]2O[C@H](C)C[C@H](N(C)C)[C@H]2O)[C@](C)(O)C[C@@H](C)N(C)C[C@H](C)[C@@H](O)[C@]1(C)O`, the MIC in the test on Klebsiella pneumoniae was 0.13 µg/mL (≈ 0.174 µM); in the test on Staphylococcus aureus, 1 µg/mL (≈ 1.34 µM); in the test on Haemophilus influenzae it was 0.25 µg/mL (≈ 0.334 µM); in the test on Enterococcus faecalis, 2 µg/mL (≈ 2.67 µM); against Streptococcus pneumoniae, not above 0.06 µg/mL; with Escherichia coli it was 0.13 µg/mL (≈ 0.174 µM).
For `CC[C@H]1OC(=O)[C@H](C)[C@@H](O[C@H]2C[C@@](C)(OC)[C@@H](O)[C@H](C)O2)[C@H](C)[C@@H](O[C@@H]2O[C@H](C)C[C@H](N(C)C)[C@H]2O)[C@](C)(O)C[C@@H](C)CN(C)[C@H](C)[C@@H](O)[C@]1(C)O` [AZITHROMYCIN], the MIC in the test with Klebsiella pneumoniae is 2 µg/mL (≈ 2.67 µM); in the test on Staphylococcus aureus it was 1 µg/mL (≈ 1.34 µM); in the test on Haemophilus influenzae, 0.5 µg/mL (≈ 0.668 µM); against Enterococcus faecalis it was 4 µg/mL (≈ 5.34 µM); in the test on Streptococcus pneumoniae it was 0.03 µg/mL (≈ 0.0401 µM); against Escherichia coli, 1 µg/mL (≈ 1.34 µM).
For `CC[C@H]1OC(=O)[C@H](C)[C@@H](O[C@H]2C[C@@](C)(OC)[C@@H](O)[C@H](C)O2)[C@H](C)[C@@H](O[C@@H]2O[C@H](C)C[C@H](N(C)C)[C@H]2O)[C@](C)(O)C[C@@H](C)C(=O)[C@H](C)[C@@H](O)[C@]1(C)O` [ERYTHROMYCIN], the MIC against Klebsiella pneumoniae stood at 32 µg/mL (≈ 43.6 µM); against Staphylococcus aureus, 0.25 µg/mL (≈ 0.341 µM); against Haemophilus influenzae, 2 µg/mL (≈ 2.73 µM); in the test with Enterococcus faecalis, 1 µg/mL (≈ 1.36 µM); with Streptococcus pneumoniae it was 0.02 µg/mL (≈ 0.0273 µM); against Escherichia coli, 32 µg/mL (≈ 43.6 µM).
As for `CC[C@H]1OC(=O)[C@H](C)[C@@H](O[C@H]2C[C@@](C)(OC)[C@@H](O)[C@H](C)O2)[C@H](C)[C@@H](O[C@@H]2O[C@H](C)C[C@H](N(C)C)[C@H]2O)[C@](C)(O)C[C@@H](C)N(C)C[C@H](C)[C@@H](O)[C@]1(C)O` [L-701677], the MIC against Klebsiella pneumoniae came to 1 µg/mL (≈ 1.34 µM); against Staphylococcus aureus, 0.5 µg/mL (≈ 0.668 µM); against Haemophilus influenzae, 1 µg/mL (≈ 1.34 µM); in the test with Enterococcus faecalis, 2 µg/mL (≈ 2.67 µM); in the test with Streptococcus pneumoniae it was 0.03 µg/mL (≈ 0.0401 µM); against Escherichia coli, 1 µg/mL (≈ 1.34 µM).
